What all share (assay): NCI-60 cell line screen, 48 h
The subject of assay [1] is LOX IMVI melanoma.
In assay [2] the test system is RPMI-8226 leukemia.
The test system of assay [3] is NCI-H522 lung.
In assay [4] the test system is OVCAR-8 ovarian.
Assay [5] relates to CCRF-CEM leukemia.
The test system of assay [6] is SK-MEL-2 melanoma.
The test system of assay [7] is UACC-62 melanoma.
The subject of assay [8] is EKVX NSCLC.
The test system of assay [9] is SF-539 CNS.
The subject of assay [10] is SK-MEL-28 melanoma.

Values joined by “and” are separate entries in the source; they are usually repeats but may differ in a detail not shown here. Equal values may be shown once.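 Where inhibition never reached the appropriate level, the endpoint shown equals the highest concentration tested. Otherwise, values were interpolated linearly from a five-concentration, 48-hour dose response in 96-well plates. GI50: concentration for 50% inhibition of growth. TGI is the concentration that stops growth completely.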

With `Cn1c(=O)c2[nH]c(SCc3ccccn3)nc2n(C)c1=S`, the TGI in [1], in assay [2], in assay [3], in assay [4], in [5] and in [6] was greater than 100 µM each time. The TGI in assay [7], in [8], in assay [9] and in [10] was greater than 100 µM throughout.
On to `Cc1ccc2c(c1)[n+]([O-])c(N)n[n+]2[O-]`, for which the TGI in assay [1], in assay [2], in assay [3], in assay [4], in [5] and in assay [6] was greater than 100 µM in each case. Moreover, the TGI in [8], in assay [9] and in assay [10] was greater than 100 µM throughout.
For `COc1ccc(-c2cc(=O)c3ccc(O)cc3o2)cc1OC`, the TGI in [1], in assay [2], in assay [3], in [4], in assay [5] and in assay [6] was greater than 100 µM throughout. In addition, the TGI in assay [7], in assay [8], in [9] and in assay [10] was greater than 100 µM throughout.
Take `[Cl-].[Dy+3].[O-]/N=C(\c1ccccc1)c1ccccn1.[O-]/N=C(\c1ccccc1)c1ccccn1.[O-]/N=C(\c1ccccc1)c1ccccn1`: the GI50 is 21.9 µM in assay [1]; 45.1 µM in [2]; 19.5 µM in assay [3]; 35.8 µM in [4]; 23.6 µM in [5]; 27.3 µM in [6]. Further, the GI50 in assay [7] is 32.5 µM; in assay [8], 31.2 µM; in assay [9] it was 25.5 µM; in assay [10], 27.6 µM. Besides, the TGI in assay [1] is 54.1 µM; in [2] it was greater than 100 µM; in assay [3], 65.6 µM; in assay [4], greater than 100 µM; in [5], 97.4 µM; in assay [6], 64.8 µM. For the same compound, the TGI in assay [7] was greater than 100 µM; in assay [8], greater than 100 µM; in assay [9], 64.3 µM; in assay [10], 90.8 µM.
For the compound `COc1cc2c(c(O)c1Br)C(=O)c1c(O)cc(C[C@H](C)O)cc1[C@H]2[C@H]1c2cc(C[C@H](C)O)cc(O)c2C(=O)c2c1cc(OC)c(Br)c2O`, the GI50 in [1] was 6.57 µM and 11.4 µM; in [2], 2.19 µM and 3 µM; in assay [3] it was 8.02 µM and 25.7 µM; in assay [4], 3.23 µM and 7.56 µM; in [5], 3.86 µM and 14.3 µM; in assay [6] it was 6.37 µM and 18.1 µM. Besides, the GI50 in assay [7] is 2.47 µM and 17.5 µM; in assay [8], 4.86 µM and 6.86 µM; in assay [9] it was 2.66 µM and 3.67 µM; in [10], 4.54 µM and 5.6 µM. Further, the TGI in assay [1] was 16.2 µM and 34.4 µM; in [2], 67.5 µM and 11.4 µM; in assay [3], 18.9 µM and 78.7 µM; in assay [4], 67.5 µM and > 100 µM; in assay [5] it was 67.5 µM and 92.9 µM; in assay [6], 19.6 µM and 44 µM. Moreover, the TGI is 13.7 µM and 90.7 µM in [7]; 16.3 µM and 27.5 µM in assay [8]; 14.8 µM and 13.6 µM in assay [9]; 32.9 µM and > 100 µM in [10].
With `Cn1c2ccccc2c2c(-c3ccccc3)[n+]3ccncc3nc21`, the GI50 in assay [1] is greater than 100 µM; in [2] it was 36.1 µM; in [3] it was 48 µM; in [4] it was greater than 100 µM; in [5], 89.4 µM; in assay [6], 55 µM. Moreover, the GI50 in assay [7] is greater than 100 µM; in assay [8], 51.4 µM; in [9], 48.3 µM; in [10], greater than 100 µM. Further, the TGI in assay [1], in assay [2], in assay [3], in [4], in [5] and in [6] was greater than 100 µM each time. Also, the TGI in assay [7], in assay [8], in assay [9] and in assay [10] was greater than 100 µM in each case.
Regarding `COc1cc([N+](=O)[O-])cc2c3c(n(C)c12)[C@@]1(C)CCC2c4ccc(OCc5ccccc5)cc4CCC2C1C3` (stereo not given in full), the GI50 in [1] was 65 µM; in [2], 81.8 µM; in assay [3], 53.6 µM; in assay [4], greater than 100 µM; in assay [5] it was greater than 100 µM; in assay [6] it was greater than 100 µM. In addition, the GI50 in assay [7] is greater than 100 µM; in assay [8], 68.5 µM; in assay [9] it was 66.7 µM; in assay [10] it was greater than 100 µM. In addition, the TGI in assay [1], in [2], in assay [3], in [4], in assay [5] and in assay [6] was greater than 100 µM in each case. In addition, the TGI in [7], in [8], in assay [9] and in assay [10] was greater than 100 µM throughout.
For `CC/C(=C(/c1ccc(O)cc1)c1ccc(OCCNC)cc1)c1ccccc1`, the GI50 is 1.75 µM in assay [1]; 2.05 µM in assay [2]; 1.87 µM in [3]; 2.14 µM in [4]; 2.39 µM in [5]; 2.08 µM in assay [6]. Besides, the GI50 in assay [7] was 1.8 µM; in assay [9] it was 1.7 µM; in [10] it was 1.71 µM. The TGI is 3.17 µM in [1]; 4.64 µM in assay [2]; 3.68 µM in assay [3]; 5.13 µM in assay [4]; 6.88 µM in assay [5]; 3.77 µM in [6]. The TGI came to 3.54 µM in assay [7], 3.22 µM in assay [9] and 3.21 µM in assay [10].
As for `CCc1ccc(/C=C\c2cc(OC)c(OC)c(OC)c2)cc1`, the TGI in assay [1] is 0.581 µM; in assay [3], 0.0503 µM and 0.0384 µM; in assay [4], 0.581 µM; in [6], 0.66 µM and 0.203 µM; in assay [8] it was greater than 100 µM; in assay [9] it was 0.0443 µM and 0.0546 µM. This compound also showed a TGI in [10] greater than 100 µM. Besides, the GI50 was 0.0373 µM in assay [2]; 0.0274 µM in [5]; 0.0258 µM in assay [6]; 0.0521 µM in assay [8]; 0.0163 µM in [9]; 0.0395 µM in [10].

(Values after PubChem BioAssay (NCI).)
